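Exposure lasted 48 hours, with cells grown in 96-well plates and compounds tested at five concentrations. TGI: total growth inhibition.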
Experiments:
Assay in all cases: NCI tumour cell line growth inhibition, 48 h
[1] = tested on: 786-0 renal
[2] = tested on: A498 renal
[3] = tested on: A549 NSCLC
[4] = tested on: ACHN renal
[5] = tested on: BT-549 breast
[6] = tested on: CAKI-1 renal
[7] = tested on: CCRF-CEM leukemia
[8] = tested on: COLO 205 colon
[9] = tested on: DLD-1 colon
[10] = tested on: DMS 114 small cell lung
[11] = tested on: DMS 273 small cell lung
[12] = tested on: DU-145 prostate
[13] = tested on: EKVX NSCLC
[14] = tested on: HCC-2998 colon
[15] = tested on: HCT-116 colon
[16] = tested on: HCT-15 colon
[17] = tested on: HL-60(TB) leukemia
[18] = tested on: HOP-18 NSCLC
[19] = tested on: HOP-62 NSCLC
[20] = tested on: HOP-92 NSCLC
[21] = tested on: HS 578T breast
[22] = tested on: HT29 colon
[23] = tested on: IGROV1 ovarian
[24] = tested on: K-562 leukemia
[25] = tested on: KM12 colon
[26] = tested on: KM20L2 colon
[27] = tested on: LOX IMVI melanoma
[28] = tested on: LXFL 529 NSCLC
[29] = tested on: M14 melanoma
[30] = tested on: M19-MEL melanoma
[31] = tested on: MALME-3M melanoma
[32] = tested on: MCF7 breast
[33] = tested on: MDA-MB-231 breast
[34] = tested on: MDA-MB-435
[35] = tested on: MDA-N
[36] = tested on: MOLT-4 leukemia
[37] = tested on: NCI-H226 lung
[38] = tested on: NCI-H23 lung
[39] = tested on: NCI-H460 lung
[40] = tested on: NCI-H522 lung
[41] = tested on: NCI/ADR-RES ovarian
[42] = tested on: OVCAR-3 ovarian
[43] = tested on: OVCAR-4 ovarian
[44] = tested on: OVCAR-5 ovarian
[45] = tested on: OVCAR-8 ovarian
[46] = tested on: PC-3 prostate
[47] = tested on: RPMI-8226 leukemia
[48] = tested on: RXF 393 renal
[49] = tested on: RXF-631 renal
[50] = tested on: SF-268 CNS
[51] = tested on: SF-295 CNS
[52] = tested on: SF-539 CNS
[53] = tested on: SK-MEL-2 melanoma
[54] = tested on: SK-MEL-28 melanoma
[55] = tested on: SK-MEL-5 melanoma
[56] = tested on: SK-OV-3 ovarian
[57] = tested on: SN12C renal
[58] = tested on: SNB-19 CNS
[59] = tested on: SNB-75 CNS
[60] = tested on: SNB-78 CNS
[61] = tested on: SR leukemia
[62] = tested on: SW-620 colon
[63] = tested on: T-47D breast
[64] = tested on: TK-10 renal
[65] = tested on: U251 CNS
[66] = tested on: UACC-257 melanoma
[67] = tested on: UACC-62 melanoma
[68] = tested on: UO-31 renal
[69] = tested on: XF 498 CNS

`CCOC(=O)c1oc2ccc([N+](=O)[O-])c3c2c1CCC3` gave a TGI [1] of 84.9 µM, a TGI [2] greater than 100 µM and a TGI [3] greater than 100 µM. It also gave a TGI [4] greater than 100 µM, a TGI [5] greater than 93 µM and a TGI [6] greater than 77.5 µM. It also gave a TGI [7] greater than 100 µM, a TGI [8] greater than 100 µM and a TGI [9] greater than 100 µM. The TGI [10] was greater than 100 µM, the TGI [11] was greater than 100 µM and the TGI [12] was greater than 100 µM. The TGI [13] was greater than 100 µM, the TGI [14] was greater than 100 µM and the TGI [15] was greater than 100 µM. For the same molecule, the TGI [16] was greater than 100 µM, the TGI [17] was greater than 100 µM and the TGI [18] was greater than 100 µM. It also gave a TGI [19] of 58.9 µM, a TGI [20] of 71 µM and a TGI [21] greater than 85 µM. It also gave a TGI [22] greater than 100 µM, a TGI [23] greater than 100 µM and a TGI [24] greater than 100 µM. It also gave a TGI [25] greater than 100 µM, a TGI [26] greater than 100 µM and a TGI [27] greater than 88.1 µM. For the same molecule, the TGI [28] was greater than 100 µM, the TGI [29] was greater than 100 µM and the TGI [30] was greater than 100 µM. It also gave a TGI [31] greater than 100 µM, a TGI [32] greater than 100 µM and a TGI [33] greater than 100 µM. For the same molecule, the TGI [34] was greater than 55.5 µM, the TGI [35] was greater than 100 µM and the TGI [36] was greater than 100 µM. The TGI [37] was greater than 100 µM, the TGI [38] was greater than 100 µM and the TGI [39] was greater than 100 µM. The TGI [40] was greater than 85.2 µM, the TGI [41] was greater than 100 µM and the TGI [42] was greater than 100 µM. It also gave a TGI [43] greater than 100 µM, a TGI [44] greater than 100 µM and a TGI [45] greater than 100 µM. For the same molecule, the TGI [46] was greater than 100 µM, the TGI [47] was greater than 100 µM and the TGI [48] was 59.6 µM. The TGI [49] was greater than 100 µM, the TGI [50] was 72.2 µM and the TGI [51] was 53.9 µM. The TGI [52] was 39.7 µM, the TGI [53] was greater than 100 µM and the TGI [54] was greater than 100 µM. The TGI [55] was greater than 100 µM, the TGI [56] was greater than 46.3 µM and the TGI [57] was greater than 100 µM. For the same molecule, the TGI [58] was greater than 89.6 µM, the TGI [59] was 33.5 µM and the TGI [60] was greater than 75 µM. It also gave a TGI [61] greater than 100 µM, a TGI [62] greater than 100 µM and a TGI [63] greater than 31.6 µM. For the same molecule, the TGI [64] was 85.9 µM, the TGI [65] was 59.2 µM and the TGI [66] was greater than 100 µM. The TGI [67] was greater than 54.8 µM, the TGI [68] was greater than 100 µM and the TGI [69] was 41 µM.
With `COc1cccc2c1C(=O)c1c(O)c3c(c(O)c1C2=O)C[C@@](O)(C(=O)CO)CC3OC1CC(O)C(O)C(C)O1` (stereo partly drawn) the TGI [1] was 12.5 µM, the TGI [2] was 1.29 µM and the TGI [3] was 3.99 µM. It also gave a TGI [4] of 0.598 µM, a TGI [5] of 1.47 µM and a TGI [6] of 12.1 µM. The TGI [7] was greater than 35.4 µM, the TGI [9] was 10.8 µM and the TGI [10] was 0.958 µM. It also gave a TGI [11] of 0.4 µM, a TGI [12] of 0.176 µM and a TGI [13] of 7.49 µM. The TGI [14] was 2.08 µM, the TGI [15] was 0.572 µM and the TGI [16] was 5.89 µM. It also gave a TGI [17] of 0.55 µM, a TGI [18] of 6.06 µM and a TGI [19] of 0.217 µM. The TGI [20] was 2.26 µM, the TGI [22] was 4.25 µM and the TGI [23] was 23.6 µM. For the same molecule, the TGI [24] was 5.51 µM, the TGI [25] was 7.49 µM and the TGI [26] was 6.28 µM. For the same molecule, the TGI [27] was 2.53 µM, the TGI [28] was 9.26 µM and the TGI [29] was 1.88 µM. The TGI [30] was 1.96 µM, the TGI [31] was 0.806 µM and the TGI [32] was 21.6 µM. The TGI [33] was 6 µM, the TGI [34] was 2.05 µM and the TGI [35] was 1.98 µM. It also gave a TGI [37] of 0.219 µM, a TGI [38] of 0.501 µM and a TGI [39] of 1.8 µM. For the same molecule, the TGI [40] was 1.5 µM, the TGI [41] was 12.5 µM and the TGI [42] was 11.3 µM. For the same molecule, the TGI [43] was 6.85 µM, the TGI [44] was 3.66 µM and the TGI [45] was 9.78 µM. The TGI [46] was 2.39 µM, the TGI [48] was 0.957 µM and the TGI [49] was 21.2 µM. It also gave a TGI [50] of 1.81 µM, a TGI [51] of 1.16 µM and a TGI [52] of 0.795 µM. For the same molecule, the TGI [53] was 1.58 µM, the TGI [54] was 2.28 µM and the TGI [55] was 0.687 µM. For the same molecule, the TGI [56] was 7.29 µM, the TGI [57] was 8.19 µM and the TGI [58] was 2.93 µM. The TGI [59] was 1.08 µM, the TGI [60] was 9.41 µM and the TGI [62] was 17.3 µM. It also gave a TGI [63] of 5.44 µM, a TGI [64] of 11.6 µM and a TGI [65] of 13.9 µM. It also gave a TGI [66] of 2.99 µM, a TGI [67] of 0.492 µM and a TGI [68] of 2.41 µM. It also gave a TGI [69] of 1.24 µM.

Source: PubChem BioAssay (NCI)
